Publication PMC9356039, “Multifunctional synthetic nano-chaperone for peptide folding and intracellular delivery” (Nature Communications, 2022)

Key:
[1] = test system: human liver cancer (HepG2) xenograft; assay: Tumor growth inhibition, intratumoral injection; assay type: in vivo, Balb/c male nude mice; conditions: HepG2 xenograft mice; intratumoral every 3 days, 14 days; 50 mg SNCP8/kg, 5 μmole st-p53pep/kg; n = 3; versus untreated control
Experimental: All of animal experiments were conducted in accordance with the Institutional Animal Care and Use Committees (IACUC) of Seoul National University. 5-week old Balb/c male nude mice were purchased (ORIENT BIO, Korea). Mice were housed in an environmentally controlled room (23 °C, with 55 ± 5% humidity and 12 h / 12 h light–dark cycle). To prepare tumor-bearing mice, a suspension of the HepG2 cells (6 × 10^6 cells) in 100 µL of sterilized PBS was subcutaneously injected (n = 3, biologically independent animals). Tumor-bearing mice were reared until the tumor volumes reach ~50 mm^3 and used for experiments. […] The changes in tumor volume and body weight were monitored over 14 days. Tumor volumes were calculated by using the equation of 1/2 × length × (width)^2, where the length and width are the longest and shortest diameters (mm) of the tumor, respectively. […] Bright field and fluorescence images from mice were obtained overtime for 3 days by using fluorescence in vivo imaging system, FoBI (Neoscience, Korea). The relative intensity of FAM fluorescence attached to st-p53pep was calculated by using the region of interest (ROI) analysis. The half-life of FAM fluorescence decay was determined by exponential curve fitting method with Origin 2017 (OriginLab, USA).

[2] = Whole-body FAM fluorescence decay in tumor after intratumoral injection; assay type: in vivo, Balb/c male nude mice; conditions: for rel. fluor. Int. (FAM): tumor ROI
Experimental: All of animal experiments were conducted in accordance with the Institutional Animal Care and Use Committees (IACUC) of Seoul National University. 5-week old Balb/c male nude mice were purchased (ORIENT BIO, Korea). Mice were housed in an environmentally controlled room (23 °C, with 55 ± 5% humidity and 12 h / 12 h light–dark cycle). To prepare tumor-bearing mice, a suspension of the HepG2 cells (6 × 10^6 cells) in 100 µL of sterilized PBS was subcutaneously injected (n = 3, biologically independent animals). Tumor-bearing mice were reared until the tumor volumes reach ~50 mm^3 and used for experiments. To investigate tumor growth inhibition efficiency, SNCP8@st-p53pep, SNCP8, and st-p53pep alone in 100 μL of PBS solution (50 mg SNCP8/kg, 5 μmole st-p53pep/kg) were directly injected into the tumor. The same volume of PBS solution was also directly treated into the tumor as a control. Intratumoral injection was performed at 3 day intervals. The changes in tumor volume and body weight were monitored over 14 days. Tumor volumes were calculated by using the equation of 1/2 × length × (width)^2, where the length and width are the longest and shortest diameters (mm) of the tumor, respectively. The relative tumor volume was derived from comparing it with the initial tumor volume. To observe sustainability and tumor exposure of st-p53pep in vivo, we used nude mice with HeLa and HepG2 cell xenografts prepared in the same manner as the tumor growth inhibition experiment. TAMRA-labeled SNCP8@ FAM-labeled st-p53pep was treated in the same manner as the tumor growth inhibition experiment instead of SNCP8@st-p53pep. Bright field and fluorescence images from mice were obtained overtime for 3 days by using fluorescence in vivo imaging system, FoBI (Neoscience, Korea). The relative intensity of FAM fluorescence attached to st-p53pep was calculated by using the region of interest (ROI) analysis. The half-life of FAM fluorescence decay was determined by exponential curve fitting method with Origin 2017 (OriginLab, USA).

HepG2 cells [3] = assay: Cellular uptake and intracellular distribution, fluorescence microscopy; assay type: cell-based, human; conditions: SNCPs@st-p53pep 0.02 mg/mL or st-p53pep 2 μM, serum-free medium 4 h
Experimental: (§1) Human liver cancer cell line HepG2 were grown in DMEM containing 10% FBS and 1% penicillin/streptomycin at 37 °C in a humidified atmosphere of 5% CO2. HepG2 cells (1.2 × 10^5 cells/well) were seeded in a 4-well glass plate for 24 h. Then, SNCPs@st-p53pep (0.02 mg/mL) and st-p53pep alone (2 μM) were added to each well in a serum-free medium for 4 h. After incubation, the cells were carefully rinsed with PBS, and the medium was replaced with a serum-containing fresh medium. After the nucleus was stained with Hoechst 33342 staining kit by manufacturer’s protocol, bright field and fluorescence images were obtained by using a DeltaVision Elite Microscopy System (GE Healthcare, USA). To observe the distribution of SNCP8 and st-p53pep in cells, TAMRA-labeled SNCP8@FAM-labeled st-p53pep (0.25 mg/mL) was treated in the same manner instead of SNCP8@st-p53pep. And then, the Mander’s overlap coefficient (MOC) was calculated in the Image J program (ver. 1.52a) via the JACoP plugin to identify co-localization between fluorescence signals over time. […] The cell viability was determined using cell counting kit-8 (CCK-8) assay by monitoring absorbance at 450 and 670 nm wavelength measured using a microplate reader (Molecular Devices, Inc., USA). The EC50 values of SNCPs@st-p53pep were determined by the logistic curve-fitting method with Origin (OriginLab, USA).

Bcl2 in HepG2 cells = assay: Western blot, Bcl2 protein level; assay type: cell-based, human
Experimental: (§2) Cells were lysed with Pro-PREP (IntronBio, Korea) according to the manufacturer’s protocol. The samples were centrifuged at 2000 × g and 4 °C for 15 min. The supernatant was collected to a 1.5 mL ep-tube and stored at −80 °C. After protein quantification using Pierce^TM BCA assay kit (Thermo Fisher Scientific, USA), the same amount of protein was diluted in water containing 5×loading buffer (Biosesang, Korea) and loaded on SDS-PAGE gel (Bio-rad, USA). After electrophoresis in Tris-Glycine SDS buffer at 80 V for 120 min, proteins in a gel were transferred to a nitrocellulose membrane (0.45 μm, Bio-rad, USA) in 1× Tris-Glycine Native Buffer (GenDEPOT, Korea) with 10% methanol at 90 V, and 4 °C for 90 min under stirring condition. The membrane was blocked with 5% milk to inhibit non-specific binding and immersed overnight at 4 °C in the presence of primary antibodies; GAPDH (1:2000, Abcam, USA), p53 (1:1000, Cell signaling, USA), MDM2 (1:1000, Cell signaling, USA), Bcl2 (1:1000, Cell signaling, USA) and CytC (1:1000, Cell signaling, USA). Anti-rabbit goat pAb, horseradish peroxidase (HRP)-linked antibody (1:5000, Abcam, USA) was used as a secondary antibody and the membrane was incubated for 1 h. After the reaction with the detection agent West Pico PLUS (Thermo Fisher Scientific, USA), bands of protein were monitored by a ImageQuant^TM LAS 4000 mini (GE Healthcare, USA). […]

MDM2 in HepG2 cells = assay: Western blot, MDM2 protein level; assay type: cell-based, human
Experimental: as §2

HepG2 cells [4] = assay: CCK-8 cell viability; assay type: cell-based, human; conditions: 24 h, 50
Experimental: as §1

CytC in HepG2 cells = assay: Western blot, cytochrome c protein level; assay type: cell-based, human
Experimental: as §2

p53 in HepG2 cells = assay: Western blot, p53 protein level; assay type: cell-based, human
Experimental: as §2

[5] = Water solubility (in words); assay type: physicochemical

CC(C)C[C@@H]1NC(=O)[C@H](CC(C)C)NC(=O)[C@H](CCCNC(=N)N)NC(=O)[C@H](Cc2c[nH]c3ccccc23)NC(=O)[C@H](CC(C)C)NC(=O)[C@H](CC(N)=O)NC(=O)[C@H](NC(=O)[C@H](Cc2ccccc2)NC(=O)[C@@H](NC(=O)[C@H](CCC(N)=O)NC(=O)[C@H](CCC(N)=O)NC(=O)[C@H](CO)NC(=O)[C@H](CCC(N)=O)NC(=O)CNC(=O)CNC(=O)c2ccc3c(c2)C(=O)OC32c3ccc(O)cc3Oc3cc(O)ccc32)[C@@H](C)O)CCCCNC(=O)CCc2cn(nn2)CCC[C@@H](C(=O)N[C@@H](CCC(N)=O)C(=O)N[C@@H](CC(N)=O)C(N)=O)NC1=O [st-p53pep]
growth of tumor volume (in words) [1]: no notable difference | rel. fluor. Int. (FAM) ([2]; 0 hours after intratumoral injection): 70000 | rel. fluor. Int. (FAM) ([2]; 6 hours after intratumoral injection): 21050 | rel. fluor. Int. (FAM) ([2]; 12 hours after intratumoral injection): 7081 | rel. fluor. Int. (FAM) ([2]; 24 hours after intratumoral injection): 501 | rel. fluor. Int. (FAM) ([2]; 48 hours after intratumoral injection): 1 | rel. fluor. Int. (FAM) ([2]; 72 hours after intratumoral injection): 1 | time until green fluorescence signal in tumor disappeared ([2]; tumor-bearing mouse, intratumoral injection): ≤ 24 h | half-life (t1/2) of green (FAM) fluorescence decay in tumor ([2]; tumor-xenograft mice, intratumoral injection, ROI analysis of whole-body image, exponential fit): 3.5 h | cellular uptake: green FAM fluorescence in cells (in words) (HepG2 cells [3]): No fluorescence | Bcl2 level relative to Control (Bcl2 in HepG2 cells; /GAPDH, Control = 1): 1.005 | Bcl2 rel. (/GAPDH) (Bcl2 in HepG2 cells; intensity divided by GAPDH): 0.9585 | MDM2 level relative to Control (MDM2 in HepG2 cells; /GAPDH, Control = 1): 0.8607 | MDM2 rel. (/GAPDH) (MDM2 in HepG2 cells; intensity divided by GAPDH): 0.7522 | cell viability at corresponding dose (HepG2 cells [4]): more than 80% | CytC level relative to Control (CytC in HepG2 cells; /GAPDH, Control = 1): 1.304 | CytC rel. (/GAPDH) (CytC in HepG2 cells; intensity divided by GAPDH): 0.81 | p53 level relative to Control (p53 in HepG2 cells; /GAPDH, Control = 1): 1.126 | p53 rel. (/GAPDH) (p53 in HepG2 cells; intensity divided by GAPDH): 0.7745 | solubility in water (in words) [5]: poor water solubility
